Reference: publication PMC12006963, “Application of Deuterium in an M1 Positive Allosteric Modulator Back-Up Program: The Discovery of VU6045422” (ACS Chemical Neuroscience, 2025)

How the values were obtained:
Assay type in all cases: in vitro ADME
[1] = Predicted hepatic clearance, hepatic microsomes (dog)
Protocol: (§1) After a 5 min preincubation, the reaction was initiated by the addition of NADPH (1 mM). At selected time intervals (0, 3, 7, 15, 25, and 45 min), aliquots were taken and subsequently placed into a 96-well plate containing cold acetonitrile with internal standard (50 ng/mL carbamazepine). Plates were then centrifuged at 3000 rcf (4 °C) for 10 min, and the supernatant was transferred to a separate 96-well plate and diluted 1:1 with water for LC/MS/MS analysis. The in vitro half-life ( 1/2, min, Eq. 1), intrinsic clearance (CLint, mL/min/kg, Eq. 2), and subsequent predicted hepatic clearance (CLhep, mL/min/kg, Eq. 3) was determined employing the […]
(§2) where k represents the slope from linear regression analysis of the natural log percent remaining of a test compound as a function of incubation time […]
(§3) (2) CLint = in vitroT1/2 x mg microsomes x gram liver x kg body wt ascale-up factors: of 20 (human) or 45 (rat) […]
(§4) where Qh (hepatic blood flow, mL/min/kg) is 21 (human) or 70 (rat).
(§5) LC/MS/MS Bioanalysis of Samples from Plasma Protein Binding and Intrinsic Clearance […]
(§6) Samples were analyzed on a Thermo Electron TSQ Quantum Ultra triple quad mass spectrometer (San Jose, CA) via electrospray ionization (ESI) with two Themo Electron Accella pumps (San Jose, CA), and a Leap Technologies CTC PAL autosampler (Carrboro, NC). Analytes were separated by gradient elution on a dual column system with two Thermo Hypersil Gold (2.1 x 30 mm, 1.9 µm) columns (San Jose, CA) thermostated at 40 °C. HPLC mobile phase A was 0.1% formic acid in water and mobile phase B was 0.1% formic acid in acetonitrile. The gradient started […]
(§7) for 0.2 min; returned to 10% B in 0.1 min. The total run time was 1.3 min and the HPLC flow rate was 0.8 mL/min. While pump 1 ran the gradient method, pump 2 equilibrated the alternate column isocratically at 10% B. Compound optimization, data collection, and processing was performed using Thermo Electron's QuickQuan software (v2.3) and Xcalibur (v2.0.7 SP1).
(§8) In vivo DMPK experimental:
(§9) Determination of brain to plasma ratio: […]

P-gp (MDR1) = biological target: T1, P-gp (MDR1) (Homo sapiens, UniProt P08183); test: MDCK-MDR1 monolayer permeability and efflux; parameters: dose or concentration left out as unconfirmed; settings: dog; for Papp at 2 h: MDCK-MDR1; for efflux ratio at 2 h: MDCK-MDR1 efflux ratio, read-out: P-gp ER
T1 construct: host or cells: MDR1-MDCK cell monolayers
T1 sequence (P08183 whole entry): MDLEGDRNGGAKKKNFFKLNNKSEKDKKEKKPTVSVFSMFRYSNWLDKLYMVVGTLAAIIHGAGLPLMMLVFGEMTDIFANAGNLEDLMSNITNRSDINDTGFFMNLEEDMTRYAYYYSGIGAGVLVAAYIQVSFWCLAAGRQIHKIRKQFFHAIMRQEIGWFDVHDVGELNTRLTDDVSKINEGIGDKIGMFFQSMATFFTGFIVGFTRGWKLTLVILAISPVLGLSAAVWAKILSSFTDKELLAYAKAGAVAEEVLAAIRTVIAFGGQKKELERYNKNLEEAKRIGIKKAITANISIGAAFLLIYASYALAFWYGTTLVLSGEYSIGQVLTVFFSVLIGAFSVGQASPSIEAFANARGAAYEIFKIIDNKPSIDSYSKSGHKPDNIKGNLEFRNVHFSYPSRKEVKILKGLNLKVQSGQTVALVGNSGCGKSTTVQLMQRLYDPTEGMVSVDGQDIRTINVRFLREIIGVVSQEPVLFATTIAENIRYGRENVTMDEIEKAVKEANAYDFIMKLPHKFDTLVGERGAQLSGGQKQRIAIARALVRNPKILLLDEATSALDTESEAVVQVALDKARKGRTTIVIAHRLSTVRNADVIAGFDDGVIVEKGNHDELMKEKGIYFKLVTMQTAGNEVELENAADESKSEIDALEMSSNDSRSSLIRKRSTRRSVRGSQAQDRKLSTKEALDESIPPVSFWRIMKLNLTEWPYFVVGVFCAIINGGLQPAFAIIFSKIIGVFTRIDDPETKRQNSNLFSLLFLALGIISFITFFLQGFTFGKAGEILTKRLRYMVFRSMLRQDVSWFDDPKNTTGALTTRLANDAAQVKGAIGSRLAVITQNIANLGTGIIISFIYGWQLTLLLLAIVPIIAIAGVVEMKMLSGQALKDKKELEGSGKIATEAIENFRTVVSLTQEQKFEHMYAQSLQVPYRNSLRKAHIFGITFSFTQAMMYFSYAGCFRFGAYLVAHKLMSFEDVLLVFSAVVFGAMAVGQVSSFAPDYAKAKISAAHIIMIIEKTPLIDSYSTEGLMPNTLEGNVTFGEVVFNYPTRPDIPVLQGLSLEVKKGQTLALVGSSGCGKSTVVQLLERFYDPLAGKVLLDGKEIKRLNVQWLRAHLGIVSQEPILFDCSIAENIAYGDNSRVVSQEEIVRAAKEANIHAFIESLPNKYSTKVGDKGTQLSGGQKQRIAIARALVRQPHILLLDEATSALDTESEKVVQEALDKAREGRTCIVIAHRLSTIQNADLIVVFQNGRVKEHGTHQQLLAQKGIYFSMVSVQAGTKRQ
Protocol: page 9: Brain plasma concentration ratio (Kp) was calculated by dividing brain concentration by plasma concentration for each animal. Unbound brain to unbound plasma concentration ratio (Kp,uu) is calculated using the following formula: Kp,uu = (Brain ng/g x brain fu)/(plasma ng/ml x plasma fu). Pharmacokinetic profiles in rats following oral single escalating doses Single escalating oral dosing in Sprague-Dawley rats was performed at Frontage Laboratories according to their non-GLP Standard Operating Procedure and IACUC protocols. In short, compounds were formulated in 10% Tween 80 in water and dosed at 10 mg/kg. At different times, arterial blood was collected from a femoral artery catheter, and compound concentration was determined in plasma by LC-MS/MS following their non-GLP protocol. PK parameters were determined using Phoenix WinNonlin software (version 6.3). In-vitro determination of blood-brain barrier penetration potential Blood-brain barrier penetration was determined using MDR1-MDCK cell monolayers by Absorption Systems, following their protocol. In short, compounds were incubated […] final concentration on one side of the cell monolayer for 2 hours. Compounds concentration on either side of the monolayer was determined by LC-MS/MS and apparent permeability and efflux ratio were determined as described in Wang, Q. et al.1 Behavioral Manifestations of Seizure Activity To evaluate induction of behavioral manifestation of seizure activity, C57Bl/6 mice received administration of vehicle or 100 mg/kg M1 PAM 5. Compound was formulated in 30% Captisol (pH 7.0) at a concentration of 10 mg/mL and injected i.p. at 10 ml/kg (n = 4). Animals were monitored continuously and scored for behavioral manifestations of seizure activity at 5, 15, 30 min, and 1 h. Behavioral manifestations of seizures were scored using a modified Racine scoring system. Briefly, a score of 0 represents no behavior alterations; score 1, immobility, mouth and facial movements, or facial clonus; score 2, head nodding, tail extension; score 3, forelimb clonus, repetitive movements; score 4, rearing and tonic clonic seizure; and score 5, continuous rearing and falling, severe generalized tonic clonic seizure. Novel Object Recognition Task S9

[2] = Predicted hepatic clearance, hepatic microsomes (human)
Protocol: as §1, §2, §3, §4, §5, §6, §7, §8, §9

[3] = Hepatocyte metabolite identification (dog); settings: dog hepatocytes, 4 h incubation
Protocol: (§10) Prior to full characterization of deuterated analogues 3 and 5, they were incubated in rat, dog, monkey, and human hepatocytes, along with 1, to determine the amount of parent remaining, as well as the degree of undesired oxidative metabolites 2, 4, and 6 (Figure 2). […] For the gem-dideutero congener 3, metabolic stability was improved in vitro. […] Thus, in hepatocytes in vitro, the kinetic isotope effect engendered greater metabolic stability of the labile hot spot on the lactam. It remained to be seen if this effect would translate in vivo, but we first had to assess the impact of the deuterated analogues on molecular pharmacology, in vitro DMPK, standard low-dose in vivo DMPK and, if warranted, in vivo efficacy in a rat novel object recognition (NOR) behavioral assay.

[4] = Hepatocyte metabolite identification (monkey); settings: monkey hepatocytes, 4 h incubation
Protocol: as §10

SMILES | Predicted CLhep [1] | Papp at 2 h (P-gp (MDR1)) | efflux ratio at 2 h (P-gp (MDR1)) | Predicted CLhep [2] | % Total Peak Area, parent remaining [3] | % Total Peak Area, parent remaining [4]
Cn1cc2c(-c3cc(F)c(CN4Cc5ncccc5C4=O)c(F)c3)cccc2n1 [compound 1] | 5.5 mL/min/kg | 31.1 ×10⁻⁶ cm/s | 1.8 | 1.3 mL/min/kg | 71.7% | 25.8%
[2H]C1([2H])c2ncccc2C(=O)N1Cc1c(F)cc(-c2cccc3nn(C)cc23)cc1F [compound 3] | 14.4 mL/min/kg | 41.2 ×10⁻⁶ cm/s | 1.55 | 10.6 mL/min/kg | 91.9% | 58.5%
[2H]C1([2H])c2ncccc2C(=O)N1Cc1c(F)cc(-c2cccc3nn(C([2H])([2H])[2H])cc23)cc1F [compound 5] | 8.8 mL/min/kg | 34.2 ×10⁻⁶ cm/s | 1.3 | 8.0 mL/min/kg | 87.8% | 60.5%
